Source: ChEMBL document CHEMBL1157761, “Cytotoxic nor-chamigrane and chamigrane endoperoxides from a basidiomycetous fungus” (J Nat Prod, 2010)
Converted amounts (≈) assume the structure as drawn.

Columns and labels:
BT-474 = assay: Cytotoxicity against human BT474 cells by MTT assay; format: functional, cell-based
SW-620 = assay: Cytotoxicity against human SW620 cells by MTT assay; format: functional, cell-based

| Compound | IC50 (BT-474) | IC50 (SW-620) |
| --- | --- | --- |
| CC1(C)CCC(=O)[C@@]2(C)OO[C@@H]3C[C@@]12CC[C@H]3O [MERULIN A] | 4.98 µg/mL (≈ 19.6 µM) | 4.84 µg/mL (≈ 19 µM) |
| CC1(C)CCC(=O)[C@H]2OO[C@@H]3C[C@]21CC[C@@]3(O)CO [MERULINS B] | > 10 µg/mL | > 10 µg/mL |
| CC1(C)CCC(=O)[C@H]2OO[C@@H]3C[C@@]21CC[C@]3(O)CO [MERULINS C] | 1.57 µg/mL (≈ 5.81 µM) | 4.11 µg/mL (≈ 15.2 µM) |
